Results published in US20240425490A1, “SULFAMIDE RIBONUCLEOTIDE REDUCTASE (RNR) INHIBITORS AND USES THEREOF” (Boundless Bio, Inc., priority 2021, published 2024).

Target: T1, RNR (RNR1:RNR2 1:1) (Homo sapiens, UniProt P23921)
T1 sequence (P23921 1-792): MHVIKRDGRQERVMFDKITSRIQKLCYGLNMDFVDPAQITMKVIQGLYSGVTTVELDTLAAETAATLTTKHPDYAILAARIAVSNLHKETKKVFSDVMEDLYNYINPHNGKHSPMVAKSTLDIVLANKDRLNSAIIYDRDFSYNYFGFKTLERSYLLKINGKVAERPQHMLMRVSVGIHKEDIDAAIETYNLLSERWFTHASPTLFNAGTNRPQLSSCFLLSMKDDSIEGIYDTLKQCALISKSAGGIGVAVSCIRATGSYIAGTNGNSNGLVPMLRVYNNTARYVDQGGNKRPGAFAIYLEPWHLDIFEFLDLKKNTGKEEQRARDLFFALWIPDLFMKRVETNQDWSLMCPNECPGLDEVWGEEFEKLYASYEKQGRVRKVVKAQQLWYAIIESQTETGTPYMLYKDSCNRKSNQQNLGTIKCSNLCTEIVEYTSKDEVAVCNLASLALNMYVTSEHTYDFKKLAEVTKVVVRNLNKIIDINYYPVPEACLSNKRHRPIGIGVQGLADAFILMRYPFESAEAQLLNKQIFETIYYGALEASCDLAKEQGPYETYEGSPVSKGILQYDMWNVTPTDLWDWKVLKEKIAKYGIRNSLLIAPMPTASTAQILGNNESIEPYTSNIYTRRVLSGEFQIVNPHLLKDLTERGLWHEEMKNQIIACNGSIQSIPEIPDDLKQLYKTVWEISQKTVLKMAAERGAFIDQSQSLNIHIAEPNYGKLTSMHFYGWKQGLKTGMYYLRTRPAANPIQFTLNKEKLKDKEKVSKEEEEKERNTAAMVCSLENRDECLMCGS
Assay: RNR enzyme activity, rapid-fire mass spectrometry (RFMS) assay
Assay type: biochemical
Details: RNR 50 nM, CDP 5 μM, ATP 1 mM, 37° C., 45 min, compounds screened up to 50 μM, read-out: RF/MS IC50
Procedure: A rapid-fire mass spectrometry (RFMS) assay was used to assess RNR enzyme activity using a 384 well plate and a robotic platform.
The plate layout included two validated reference compounds (Triapine (3-AP) and Hydroxyurea (HU)): • A dose response in duplicate; top concentration: 5 μM (3-AP) and 250 μM (HU), semi-log dilutions. • Spike wells in triplicate randomly spotted at four concentrations: • 250 μM, 100 μM, 30 μM and 2 μM for HU • 5 μM, 2 μM, 0.6 μM and 0.04 μM for 3-AP
First, the multidrop pipes were saturated for 30 minutes with enzymatic solution. Then 30 μL of Stop solution was distributed in column 24. Next, 15 μL of enzyme was distributed in column 1 to 24. Next, a pre-incubation step of 15 minutes at room temperature occurred, followed by distribution of 15 μL of substrate solution (column 1 to 24). Next, the plate was incubated for 45 minutes at 37° C. 30 μL of Stop solution was distributed to columns 1 to 23.
The final parameters for the enzyme reactions were: • Incubation: 37° C., 45 min • [CDP]: 5 μM; [ATP]: 1 mM; [NADPH]: No • [RNR] final: 50 nM with 1:1 (RNR1:RNR2) ratio • Final volume: 30 μL • Stop solution: 6% HCOOH containing 2 μM of 15

Compound	IC50 [nM]
Cc1ccc(F)c([C@H](C)[C@H](NS(=O)(=O)N2CCC3(CC2)CC(F)(F)C3)c2n[nH]c(=O)o2)c1C [Example 95, 2,2-difluoro-N-((1S,2S)-2-(6-fluoro-2,3-dimethylphenyl)-1-(5-oxo-4,5-dihydro-1,3,4-oxadiazol-2-yl)propyl)-7-azaspiro[3.5]nonane-7-sulfonamide]	1000 to 10000
Cc1ccc(F)c([C@@H](C)[C@H](NS(=O)(=O)N2CC3CCCC(C3)C2)c2n[nH]c(=O)o2)c1C [Example 7, N-((1S,2R)-2-(6-fluoro-2,3-dimethylphenyl)-1-(5-oxo-4,5-dihydro-1,3,4-oxadiazol-2-yl)propyl)-3-azabicyclo[3.3.1]nonane-3-sulfonamide]	10000 to 100000
Cc1ccc(F)c(C(C)[C@H](NS(=O)(=O)N2CCCC2)c2n[nH]c(=O)o2)c1C (stereo partly drawn) [Example 112, N-((1S)-2-(6-fluoro-2,3-dimethylphenyl)-1-(5-oxo-4,5-dihydro-1,3,4-oxadiazol-2-yl)propyl)pyrrolidine-1-sulfonamide]	1000 to 10000
Cc1ccc(F)c(C(C)[C@H](NS(=O)(=O)N2CCC(n3cccn3)CC2)c2n[nH]c(=O)o2)c1C (stereo partly drawn) [Example 96, N-((1S)-2-(6-fluoro-2,3-dimethylphenyl)-1-(5-oxo-4,5-dihydro-1,3,4-oxadiazol-2-yl)propyl)-4-(1H-pyrazol-1-yl)piperidine-1-sulfonamide]	1000 to 10000
Cc1ccc(F)c([C@H](C)[C@H](NS(=O)(=O)N2CCC3(CCCC3)CC2)c2n[nH]c(=O)o2)c1C [Example 72, N-((1S,2S)-2-(6-fluoro-2,3-dimethylphenyl)-1-(5-oxo-4,5-dihydro-1,3,4-oxadiazol-2-yl)propyl)-8-azaspiro[4.5]decane-8-sulfonamide]	1000 to 10000
Cc1ccc(F)c(C(C)[C@H](NS(=O)(=O)N2CCC(c3ncc[nH]3)CC2)c2n[nH]c(=O)o2)c1C (stereo partly drawn) [Example 90, N-((1S)-2-(6-fluoro-2,3-dimethylphenyl)-1-(5-oxo-4,5-dihydro-1,3,4-oxadiazol-2-yl)propyl)-4-(1H-imidazol-2-yl)piperidine-1-sulfonamide]	1000 to 10000
Cc1ccc(F)c([C@@H](C)[C@H](NS(=O)(=O)N2CCC[C@](C)(O)C2)c2n[nH]c(=O)o2)c1C [Example 20, (S)-N-((1S,2R)-2-(6-fluoro-2,3-dimethylphenyl)-1-(5-oxo-4,5-dihydro-1,3,4-oxadiazol-2-yl)propyl)-3-hydroxy-3-methylpiperidine-1-sulfonamide]	1000 to 10000
Cc1ccc(F)c([C@H](C)[C@H](NS(=O)(=O)N2CCC(Cl)CC2)c2n[nH]c(=O)o2)c1C [Example 6, 4-chloro-N-((1S,2S)-2-(6-fluoro-2,3-dimethylphenyl)-1-(5-oxo-4,5-dihydro-1,3,4-oxadiazol-2-yl)propyl)piperidine-1-sulfonamide]	1000 to 10000
Cc1ccc(F)c([C@@H](C)[C@H](NS(=O)(=O)N2CCCc3ccccc32)c2n[nH]c(=O)o2)c1C [Example 109, N-((1S,2R)-2-(6-fluoro-2,3-dimethylphenyl)-1-(5-oxo-4,5-dihydro-1,3,4-oxadiazol-2-yl)propyl)-3,4-dihydroquinoline-1(2H)-sulfonamide]	1000 to 10000
4-(3-azabicyclo[3.1.0]hexan-3-yl)-N-((1S,2R)-2-(6-fluoro-2,3-dimethylphenyl)-1-(5-oxo-4,5-dihydro-1,3,4-oxadiazol-2-yl)propyl)piperidine-1-sulfonamide [Example 105]	1000 to 10000
Cc1ccc(F)c([C@@H](C)[C@H](NS(=O)(=O)N2CCC(C)CC2C)c2n[nH]c(=O)o2)c1C (stereo partly drawn) [Example 8, N-((1S,2R)-2-(6-fluoro-2,3-dimethylphenyl)-1-(5-oxo-4,5-dihydro-1,3,4-oxadiazol-2-yl)propyl)-2,4-dimethylpiperidine-1-sulfonamide]	1000 to 10000
Cc1ccc(F)c(C(C)[C@H](NS(=O)(=O)N2CCCC(N(C)C)C2)c2n[nH]c(=O)o2)c1C (stereo partly drawn) [Example 25, 3-(dimethylamino)-N-((1S)-2-(6-fluoro-2,3-dimethylphenyl)-1-(5-oxo-4,5-dihydro-1,3,4-oxadiazol-2-yl)propyl)piperidine-1-sulfonamide]	10000 to 100000
CNC(=O)C1CCN(S(=O)(=O)N[C@H](c2n[nH]c(=O)o2)[C@H](C)c2c(F)ccc(C)c2C)CC1 [Example 57, 1-(N-((1S,2R)-2-(6-fluoro-2,3-dimethylphenyl)-1-(5-oxo-4,5-dihydro-1,3,4-oxadiazol-2-yl)propyl)sulfamoyl)-N-methylpiperidine-4-carboxamide]	1000 to 10000
COCC1CCN(S(=O)(=O)N[C@H](c2n[nH]c(=O)o2)[C@@H](C)c2c(F)ccc(C)c2C)CC1 [Example 128, N-((1S,2S)-2-(6-fluoro-2,3-dimethylphenyl)-1-(5-oxo-4,5-dihydro-1,3,4-oxadiazol-2-yl)propyl)-4-(methoxymethyl)piperidine-1-sulfonamide]	1000 to 10000

Second part, the compound after the results:

IC50 [nM]	Compound
1000 to 10000	CC(=O)[C@H]1CCCCN1S(=O)(=O)N[C@H](c1n[nH]c(=O)o1)[C@H](C)c1c(F)ccc(C)c1C [Example 19, (R)-2-acetyl-N-((1S,2R)-2-(6-fluoro-2,3-dimethylphenyl)-1-(5-oxo-4,5-dihydro-1,3,4-oxadiazol-2-yl)propyl)piperidine-1-sulfonamide]
1000 to 10000	Cc1ccc(F)c([C@H](C)[C@H](NS(=O)(=O)N2CCC3(CC2)OCCCO3)c2n[nH]c(=O)o2)c1C [Example 86, N-((1S,2S)-2-(6-fluoro-2,3-dimethylphenyl)-1-(5-oxo-4,5-dihydro-1,3,4-oxadiazol-2-yl)propyl)-1,5-dioxa-9-azaspiro[5.5]undecane-9-sulfonamide]
100 to 1000	Cc1ccc(F)c(C(C)[C@H](NS(=O)(=O)N2CCC(C3NC(=O)NC3=O)CC2)c2n[nH]c(=O)o2)c1C (stereo partly drawn) [Example 60, 4-(2,5-dioxoimidazolidin-4-yl)-N-((1S)-2-(6-fluoro-2,3-dimethylphenyl)-1-(5-oxo-4,5-dihydro-1,3,4-oxadiazol-2-yl)propyl)piperidine-1-sulfonamide]
100 to 1000	COC1CCN(S(=O)(=O)N[C@H](c2n[nH]c(=O)o2)[C@H](C)c2c(F)ccc(C)c2C)CC1 [Example 125, N-((1S,2R)-2-(6-fluoro-2,3-dimethylphenyl)-1-(5-oxo-4,5-dihydro-1,3,4-oxadiazol-2-yl)propyl)-4-methoxypiperidine-1-sulfonamide]
100 to 1000	COC(=O)C1CC12CCN(S(=O)(=O)N[C@H](c1n[nH]c(=O)o1)C(C)c1c(F)ccc(C)c1C)CC2 (stereo partly drawn) [Example 92, methyl 6-(N-((1S)-2-(6-fluoro-2,3-dimethylphenyl)-1-(5-oxo-4,5-dihydro-1,3,4-oxadiazol-2-yl)propyl)sulfamoyl)-6-azaspiro[2.5]octane-1-carboxylate]
100 to 1000	Cc1ccc(F)c(C(C)[C@H](NS(=O)(=O)N2CCC3(CC2)OCc2ccccc23)c2n[nH]c(=O)o2)c1C (stereo partly drawn) [Example 73, N-((1S)-2-(6-fluoro-2,3-dimethylphenyl)-1-(5-oxo-4,5-dihydro-1,3,4-oxadiazol-2-yl)propyl)-3H-spiro[isobenzofuran-1,4′-piperidine]-1′-sulfonamide]
100 to 1000	Cc1ccc(F)c([C@@H](C)[C@H](NS(=O)(=O)N2C[C@H]3CCC[C@H]3C2)c2n[nH]c(=O)o2)c1C [Example 4, (3aR,6aS)-N-((1S,2R)-2-(6-Fluoro-2,3-dimethylphenyl)-1-(5-oxo-4,5-dihydro-1,3,4-oxadiazol-2-yl)propyl)hexahydrocyclopenta[c]pyrrole-2(1H)-sulfonamide]
100 to 1000	Cc1ccc(F)c(C(C)[C@H](NS(=O)(=O)N2CC3C(C2)C3(F)F)c2n[nH]c(=O)o2)c1C (stereo partly drawn) [Example 106, 6,6-difluoro-N-((1S)-2-(6-fluoro-2,3-dimethylphenyl)-1-(5-oxo-4,5-dihydro-1,3,4-oxadiazol-2-yl)propyl)-3-azabicyclo[3.1.0]hexane-3-sulfonamide]
100 to 1000	Cc1ccc(F)c([C@@H](C)[C@H](NS(=O)(=O)N2CCC(C)(C)CC2)c2n[nH]c(=O)o2)c1C [Example 113, N-((1S,2R)-2-(6-fluoro-2,3-dimethylphenyl)-1-(5-oxo-4,5-dihydro-1,3,4-oxadiazol-2-yl)propyl)-4,4-dimethyl piperidine-1-sulfonamide]
